Measured values as given in BindingDB's records for doi:10.1021/jm00397a034 (Hoffmann-La Roche, 1988).

Target: Platelet-activating factor receptor (Canis familiaris)
Test: ChEBML_158835
Description: Ability to inhibit platelet activating factor (PAF) binding to platelets by 50% was determined by using [3H]PAF as radioligand

Row | IC50 [nM] | SMILES
1 | 250 | CC(C)c1ccc2nc3ccc(C(=O)N[C@H](C)CCCc4cccnc4)cn3c(=O)c2c1 [2-Isopropyl-11-oxo-11H-pyrido[2,1-b]quinazoline-8-carboxylic acid (1-methyl-4-pyridin-3-yl-butyl)-amide]
2 | 600 | CC(C)c1ccc2nc3ccc(C(=O)N[C@@H](C)CCCc4cccnc4)cn3c(=O)c2c1 [2-Isopropyl-11-oxo-11H-pyrido[2,1-b]quinazoline-8-carboxylic acid (1-methyl-4-pyridin-3-yl-butyl)-amide]
3 | 400 | CC(CCCc1cccnc1)NC(=O)c1ccc2nc3ccc(C(C)C)cc3c(=O)n2c1 (configuration not stated)

Target: not listed separately
Test: Ability to inhibit platelet activating factor (PAF) binding to platelets by 50% was determined by using [3H]PAF as radioligand

Row | SMILES | IC50 [nM]
4 | CC(C)c1ccc2nc3ccc(CNCCCCc4cccnc4)cn3c(=O)c2c1 [2-Isopropyl-8-[(4-pyridin-3-yl-butylamino)-methyl]-pyrido[2,1-b]quinazolin-11-one] | > 1000
5 | Cc1cc2nc3ccc(C(=O)NCCCCc4ccc[n+](C)c4)cn3c(=O)c2cc1C [3-{4-[(2,3-Dimethyl-11-oxo-11H-pyrido[2,1-b]quinazoline-8-carbonyl)-amino]-butyl}-1-methyl-pyridinium] | > 1000
6 | COc1ccc2nc3ccc(C(=O)NCCCCc4cccnc4)cn3c(=O)c2c1 | 1000
7 | Cc1cc2nc3ccc(C(=O)NCCCCc4cccnc4)cn3c(=O)c2cc1C | 250
8 | Cc1cc2nc3ccc(C(=O)NCCCCc4cncnc4)cn3c(=O)c2cc1C [2,3-Dimethyl-11-oxo-11H-pyrido[2,1-b]quinazoline-8-carboxylic acid (4-pyrimidin-5-yl-butyl)-amide] | 100
9 | O=C(NCCCCc1cccnc1)c1ccc2nc3ccccc3c(=O)n2c1 | 1800
10 | CC(C)c1ccc2nc3ccc(CCCCCCc4cccnc4)cn3c(=O)c2c1 [2-Isopropyl-8-(6-pyridin-3-yl-hexyl)-pyrido[2,1-b]quinazolin-11-one] | > 1000
11 | O=C(NCCCCc1cccnc1)c1ccc2nc3cc(Cl)ccc3c(=O)n2c1 | 1000
12 | Cc1cc2nc3ccc(C(=O)NCCCCc4cnc[n+](C)c4)cn3c(=O)c2cc1C [5-{4-[(2,3-Dimethyl-11-oxo-11H-pyrido[2,1-b]quinazoline-8-carbonyl)-amino]-butyl}-1-methyl-pyrimidin-1-ium] | > 1000
13 | COc1ccc2c(=O)n3cc(C(=O)NCCCCc4cccnc4)ccc3nc2c1 | 370
14 | CC(C)c1ccc2nc3ccc(C(=O)OCCCCc4cccnc4)cn3c(=O)c2c1 [2-Isopropyl-11-oxo-11H-pyrido[2,1-b]quinazoline-8-carboxylic acid 4-pyridin-3-yl-butyl ester] | > 1000
15 | CC(C)c1ccc2nc3ccc(S(=O)(=O)NCCCCc4cccnc4)cn3c(=O)c2c1 [2-Isopropyl-11-oxo-11H-pyrido[2,1-b]quinazoline-8-sulfonic acid (4-pyridin-3-yl-butyl)-amide] | > 1000
16 | Cc1cc2nc3ccc(C(=O)NCCCCCC[n+]4ccccc4)cn3c(=O)c2cc1C [1-{6-[(2,3-Dimethyl-11-oxo-11H-pyrido[2,1-b]quinazoline-8-carbonyl)-amino]-hexyl}-pyridinium] | > 1000
17 | CC(C)c1ccc2nc3ccc(C(=O)NC(C)(C)CCCc4cccnc4)cn3c(=O)c2c1 | 1200

The remaining lines, values ahead:

Row | IC50 [nM] | SMILES
18 | 1200 | O=C(NCCCCc1cccnc1)c1ccc2nc3ccc(O)cc3c(=O)n2c1
19 | 3500 | CC(C)c1ccc2nc3ccc(C(=O)NCCCCn4ccnc4)cn3c(=O)c2c1
20 | 200 | CC(C)c1ccc2nc3ccc(C(=O)NCCCCCCc4cncnc4)cn3c(=O)c2c1 [2-Isopropyl-11-oxo-11H-pyrido[2,1-b]quinazoline-8-carboxylic acid (6-pyrimidin-5-yl-hexyl)-amide]
21 | 350 | CC(C)c1ccc2nc3ccc(C(=O)NCCCCc4cccnc4)cn3c(=O)c2c1
22 | 1300 | CC(C)c1ccc2nc3ccc(C(=O)NCCCCc4ccncc4)cn3c(=O)c2c1
23 | 400 | CC(C)c1ccc2nc3ccc(C(=O)NCCCCCCc4cccnc4)cn3c(=O)c2c1
24 | 5000 | CC(C)c1ccc2nc3ccc(C(=O)NCCCCc4ccccn4)cn3c(=O)c2c1
25 | 600 | CC(C)Oc1ccc2nc3ccc(C(=O)NCCCCc4cccnc4)cn3c(=O)c2c1
26 | 700 | O=C(NCCCCc1cccnc1)c1ccc2nc3ccc(Br)cc3c(=O)n2c1
27 | > 1000 | CC(C)c1ccc2nc3ccc(C(=O)NCCCCCCCc4cccnc4)cn3c(=O)c2c1
28 | 2500 | CC(C)c1ccc2nc3ccc(C(=O)NCCc4cccnc4)cn3c(=O)c2c1
29 | 500 | Cc1ccc2nc3ccc(C(=O)NCCCCc4cccnc4)cn3c(=O)c2c1
30 | > 1000 | CC(C)c1ccc2nc3ccc(C(=O)NCCCCCc4cccnc4)cn3c(=O)c2c1
31 | > 1000 | CC(C)c1ccc2nc3ccc(C(=O)NCCCc4cccnc4)cn3c(=O)c2c1
32 | 450 | CC(C)c1ccc2nc3ccc(C(=O)NCCCCc4cncnc4)cn3c(=O)c2c1
